Data taken from patent US6737383B1, “Herbicidal oxadiazolidines” (priority 1999, dated 2004).

Assays:
crabgrass = experiment: Test B pre/postemergence crabgrass; assay type: in vivo, Digitaria sanguinalis; settings: for Crabgrass plant response rating: scale of 0 to 10 where 0 is no effect and 10 is complete control
Method in brief: (§1)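 Response is a visual 0-to-10 score relative to untreated plants, where 0 means no effect and 10 means complete control, taken twelve to sixteen days after application. Treatments went onto soil at planting and onto foliage of 1- to 4-leaf plants, using a surfactant-containing non-phytotoxic solvent.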

rice = experiment: Test B flood test rice; assay type: in vivo, Oryza sativa; settings: Pre-emergence
Method in brief: (§2)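 Flood test on plants grown to the 2-leaf stage; treated plants kept in greenhouse twelve to sixteen days, then visually rated against controls on a 0 (no effect) to 10 (complete control) scale.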

bamyardgrass = experiment: Test B flood test barnyardgrass; assay type: in vivo, Echinochloa crus-galli; settings: Pre-emergence
Method in brief: as §2

wild oat = experiment: Test B pre/postemergence wild oat; assay type: in vivo, Avena fatua; settings: for Wild oats plant response rating: scale of 0 to 10 where 0 is no effect and 10 is complete control
Method in brief: as §1

wheat = experiment: Test B pre/postemergence wheat; assay type: in vivo, Triticum aestivum; settings: for Wheat plant response rating: scale of 0 to 10 where 0 is no effect and 10 is complete control
Method in brief: as §1

purple nutsedge = experiment: Test B pre/postemergence purple nutsedge; assay type: in vivo, Cyperus rotundus; settings: for Nutsedge plant response rating: scale of 0 to 10 where 0 is no effect and 10 is complete control
Method in brief: as §1

bedstraw = experiment: Test B pre/postemergence bedstraw; assay type: in vivo, Galium aparine; settings: for Bedstraw plant response rating: scale of 0 to 10 where 0 is no effect and 10 is complete control
Method in brief: as §1

sugar beet = experiment: Test B pre/postemergence sugar beet; assay type: in vivo, Beta vulgaris; settings: for Sugarbeets plant response rating: scale of 0 to 10 where 0 is no effect and 10 is complete control
Method in brief: as §1

blackgrass = experiment: Test B pre/postemergence blackgrass; assay type: in vivo, Alopecurus myosuroides; settings: for Blackgrass plant response rating: scale of 0 to 10 where 0 is no effect and 10 is complete control
Method in brief: as §1

velvetleaf = experiment: Test B pre/postemergence velvetleaf; assay type: in vivo, Abutilon theophrasti; settings: for Velvetleaf plant response rating: scale of 0 to 10 where 0 is no effect and 10 is complete control
Method in brief: as §1

duck salad = experiment: Test B flood test duck salad; assay type: in vivo, Heteranthera limosa; settings: Pre-emergence
Method in brief: as §2

morningglory = experiment: Test B pre/postemergence morningglory; assay type: in vivo, Ipomoea hederacea; settings: for Morningglory plant response rating: scale of 0 to 10 where 0 is no effect and 10 is complete control
Method in brief: as §1

giant foxtail = experiment: Test B pre/postemergence giant foxtail; assay type: in vivo, Setaria faberii; settings: for Giant foxtail plant response rating: scale of 0 to 10 where 0 is no effect and 10 is complete control
Method in brief: as §1

pigweed = experiment: Test B pre/postemergence pigweed; assay type: in vivo, Amaranthus retroflexus; settings: for Redroot pigweed plant response rating: scale of 0 to 10 where 0 is no effect and 10 is complete control
Method in brief: as §1

surinam grass = experiment: Test B pre/postemergence surinam grass; assay type: in vivo, Brachiaria decumbens; settings: for B. signalgrass plant response rating: scale of 0 to 10 where 0 is no effect and 10 is complete control
Method in brief: as §1

cocklebur = experiment: Test B pre/postemergence cocklebur; assay type: in vivo, Xanthium strumarium; settings: for Cocklebur plant response rating: scale of 0 to 10 where 0 is no effect and 10 is complete control
Method in brief: as §1

[1] = Postemergence, Rate 125 g/ha, scale 0 to 10, 0 is no effect, 10 is complete control
[2] = Postemergence, Rate 250 g/ha, scale 0 to 10, 0 is no effect, 10 is complete control
[3] = Preemergence, Rate 62 g/ha, scale 0 to 10 (0 no effect, 10 complete control)
[4] = Rate 500 g/ha, Postemergence, scale 0 to 10, 0 no effect, 10 complete control
[5] = Rate 62 g/ha, flood test species, visual evaluation after twelve to sixteen days
[6] = Rate 125 g/ha, flood test species, scale 0 to 10 where 0 is no effect and 10 is complete control
[7] = Rate 250 g/ha, flood-test species, scale 0 to 10, 0 is no effect, 10 is complete control
[8] = Rate 500 g/ha, flood test species, scale 0 to 10 (0 no effect, 10 complete control)

CC(C)N(C(=O)n1oc(=O)n(C)c1=O)c1ccc(F)cc1F [Compound 368]
Plant response rating, Crabgrass (crabgrass; [1]): 8
Plant response rating, Crabgrass (crabgrass; [2]): 8
Plant response rating, Crabgrass (crabgrass; [3]): 10
Crabgrass plant response rating (0 to 10 scale) (crabgrass; Preemergence, Rate 125 g/ha): 10
Crabgrass plant response rating (crabgrass; Preemergence, Rate 250 g/ha): 10
Crabgrass plant response rating (crabgrass; Preemergence, Rate 500 g/ha): 10
Crabgrass plant response rating (crabgrass; Rate 62 g/ha, Postemergence): 6
Plant response rating, Crabgrass (crabgrass; [4]): 8
Plant response rating, Rice (0 to 10 scale, 0 is no effect, 10 is complete control) (rice; [5]): 0
Rice plant response rating (rice; [6]): 0
Rice plant response rating (rice; [7]): 0
Rice plant response rating (rice; [8]): 5
Plant response rating, Barnyardgrass (0 to 10 scale, 0 is no effect, 10 is complete control) (bamyardgrass; [5]): 0
Barnyardgrass plant response rating (bamyardgrass; [6]): 0
Barnyardgrass plant response rating (bamyardgrass; [7]): 0
Barnyardgrass plant response rating (bamyardgrass; [8]): 7
Plant response rating, Wild oats (wild oat; [1]): 0
Plant response rating, Wild oats (wild oat; [2]): 3
Plant response rating, Wild oats (wild oat; [3]): 4
Wild oats plant response rating (0 to 10 scale) (wild oat; Preemergence, Rate 125 g/ha): 9
Wild oats plant response rating (wild oat; Preemergence, Rate 250 g/ha): 10
Wild oats plant response rating (wild oat; Preemergence, Rate 500 g/ha): 10
Wild oats plant response rating (wild oat; Rate 62 g/ha, Postemergence): 0
Plant response rating, Wild oats (wild oat; [4]): 5
Plant response rating, Wheat (wheat; [1]): 3
Plant response rating, Wheat (wheat; [2]): 4
Plant response rating, Wheat (wheat; [3]): 0
Wheat plant response rating (0 to 10 scale) (wheat; Preemergence, Rate 125 g/ha): 4
Wheat plant response rating (wheat; Preemergence, Rate 250 g/ha): 8
Wheat plant response rating (wheat; Preemergence, Rate 500 g/ha): 10
Wheat plant response rating (wheat; Rate 62 g/ha, Postemergence): 0
Plant response rating, Wheat (wheat; [4]): 6
Plant response rating, Nutsedge (purple nutsedge; [1]): 0
Plant response rating, Nutsedge (purple nutsedge; [2]): 0
Plant response rating, Nutsedge (purple nutsedge; [3]): 0
Nutsedge plant response rating (0 to 10 scale) (purple nutsedge; Preemergence, Rate 125 g/ha): 2
Nutsedge plant response rating (purple nutsedge; Preemergence, Rate 250 g/ha): 10
Nutsedge plant response rating (purple nutsedge; Preemergence, Rate 500 g/ha): 10
Nutsedge plant response rating (purple nutsedge; Rate 62 g/ha, Postemergence): 0
Plant response rating, Nutsedge (purple nutsedge; [4]): 0
Plant response rating, Bedstraw (bedstraw; [2]): 4
Plant response rating, Bedstraw (bedstraw; [3]): 0
Bedstraw plant response rating (0 to 10 scale) (bedstraw; Preemergence, Rate 125 g/ha): 2
Bedstraw plant response rating (bedstraw; Preemergence, Rate 250 g/ha): 10
Bedstraw plant response rating (bedstraw; Preemergence, Rate 500 g/ha): 10
Bedstraw plant response rating (bedstraw; Rate 62 g/ha, Postemergence): 0
Plant response rating, Sugarbeets (sugar beet; [1]): 0
Plant response rating, Sugarbeets (sugar beet; [2]): 2
Plant response rating, Sugarbeets (sugar beet; [3]): 6
Sugarbeets plant response rating (0 to 10 scale) (sugar beet; Preemergence, Rate 125 g/ha): 8
Sugarbeets plant response rating (sugar beet; Preemergence, Rate 250 g/ha): 10
Sugarbeets plant response rating (sugar beet; Preemergence, Rate 500 g/ha): 10
Sugarbeets plant response rating (sugar beet; Rate 62 g/ha, Postemergence): 0
Plant response rating, Sugarbeets (sugar beet; [4]): 3
Plant response rating, Blackgrass (blackgrass; [1]): 7
Plant response rating, Blackgrass (blackgrass; [2]): 8
Plant response rating, Blackgrass (blackgrass; [3]): 8
Blackgrass plant response rating (0 to 10 scale) (blackgrass; Preemergence, Rate 125 g/ha): 9
Blackgrass plant response rating (blackgrass; Preemergence, Rate 250 g/ha): 10
Blackgrass plant response rating (blackgrass; Preemergence, Rate 500 g/ha): 10
Blackgrass plant response rating (blackgrass; Rate 62 g/ha, Postemergence): 7
Plant response rating, Blackgrass (blackgrass; [4]): 8
Plant response rating, Velvetleaf (velvetleaf; [1]): 0
Plant response rating, Velvetleaf (velvetleaf; [2]): 3
Plant response rating, Velvetleaf (velvetleaf; [3]): 4
Velvetleaf plant response rating (0 to 10 scale) (velvetleaf; Preemergence, Rate 125 g/ha): 7
Velvetleaf plant response rating (velvetleaf; Preemergence, Rate 250 g/ha): 10
Velvetleaf plant response rating (velvetleaf; Preemergence, Rate 500 g/ha): 10
Velvetleaf plant response rating (velvetleaf; Rate 62 g/ha, Postemergence): 0
Plant response rating, Velvetleaf (velvetleaf; [4]): 7
Plant response rating, Ducksalad (0 to 10 scale, 0 is no effect, 10 is complete control) (duck salad; [5]): 0
Ducksalad plant response rating (duck salad; [6]): 0
Ducksalad plant response rating (duck salad; [7]): 0
Ducksalad plant response rating (duck salad; [8]): 0
Plant response rating, Morningglory (morningglory; [1]): 4
Plant response rating, Morningglory (morningglory; [2]): 5
Plant response rating, Morningglory (morningglory; [3]): 0
Morningglory plant response rating (0 to 10 scale) (morningglory; Preemergence, Rate 125 g/ha): 1
Morningglory plant response rating (morningglory; Preemergence, Rate 250 g/ha): 3
Morningglory plant response rating (morningglory; Preemergence, Rate 500 g/ha): 5
Morningglory plant response rating (morningglory; Rate 62 g/ha, Postemergence): 2
Plant response rating, Morningglory (morningglory; [4]): 7
Plant response rating, Giant foxtail (giant foxtail; [1]): 8
Plant response rating, Giant foxtail (giant foxtail; [2]): 9
Plant response rating, Giant foxtail (giant foxtail; [3]): 10
Giant foxtail plant response rating (0 to 10 scale) (giant foxtail; Preemergence, Rate 125 g/ha): 10
Giant foxtail plant response rating (giant foxtail; Preemergence, Rate 250 g/ha): 10
Giant foxtail plant response rating (giant foxtail; Preemergence, Rate 500 g/ha): 10
Giant foxtail plant response rating (giant foxtail; Rate 62 g/ha, Postemergence): 8
Plant response rating, Giant foxtail (giant foxtail; [4]): 9
Plant response rating, Redroot pigweed (pigweed; [1]): 3
Plant response rating, Redroot pigweed (pigweed; [2]): 4
Plant response rating, Redroot pigweed (pigweed; [3]): 10
Redroot pigweed plant response rating (0 to 10 scale) (pigweed; Preemergence, Rate 125 g/ha): 10
Redroot pigweed plant response rating (pigweed; Preemergence, Rate 250 g/ha): 10
Redroot pigweed plant response rating (pigweed; Preemergence, Rate 500 g/ha): 10
Redroot pigweed plant response rating (pigweed; Rate 62 g/ha, Postemergence): 2
Plant response rating, Redroot pigweed (pigweed; [4]): 7
Plant response rating, B. signalgrass (surinam grass; [1]): 5
Plant response rating, B. signalgrass (surinam grass; [2]): 6
Plant response rating, B. signalgrass (surinam grass; [3]): 1
B. signalgrass plant response rating (0 to 10 scale, 0 is no effect, 10 is complete control) (surinam grass; Preemergence, Rate 125 g/ha): 6
B. signalgrass plant response rating (surinam grass; Preemergence, Rate 250 g/ha): 8
B. signalgrass plant response rating (surinam grass; Preemergence, Rate 500 g/ha): 8
B. signalgrass plant response rating (surinam grass; Rate 62 g/ha, Postemergence): 0
Plant response rating, B. signalgrass (surinam grass; [4]): 7
Plant response rating, Cocklebur (cocklebur; [1]): 2
Plant response rating, Cocklebur (cocklebur; [2]): 3
Plant response rating, Cocklebur (cocklebur; [3]): 0
Cocklebur plant response rating (0 to 10 scale) (cocklebur; Preemergence, Rate 125 g/ha): 0
Cocklebur plant response rating (cocklebur; Preemergence, Rate 250 g/ha): 0
Cocklebur plant response rating (cocklebur; Preemergence, Rate 500 g/ha): 0
Cocklebur plant response rating (cocklebur; Rate 62 g/ha, Postemergence): 0
Plant response rating, Cocklebur (cocklebur; [4]): 5
